Assay results taken from patent publication US20230312556A1, “ARYLAMIDE COMPOUND, PHARMACEUTICAL COMPOSITION COMPRISING SAME, AND PREPARATION METHOD THEREFOR AND USE THEREOF” (SICHUAN KELUN-BIOTECH BIOPHARMACEUTICAL CO., LTD., priority 2020, published 2023).

Columns and labels:
[1] = target: mutant BRAF enzyme (BRAF-V600E) (Homo sapiens (Human), UniProt P15056, V600E); test: RAF inhibition assay (TB-PMAP2K1 kit), BRAF-V600E; assay type: biochemical; conditions: FLUORESCEIN-MAP2K1 substrate, 60 min reaction
[2] = target: mutant CRAF enzyme (RAF1 Y340D and Y341D) (Homo sapiens (Human), UniProt P04049, Y340D/Y341D); test: RAF inhibition assay (TB-PMAP2K1 kit), mutant CRAF; assay type: biochemical; conditions: FLUORESCEIN-MAP2K1 substrate, 60 min reaction
Chain of mutant CRAF enzyme (RAF1 Y340D and Y341D) (P04049 whole entry Y340D/Y341D): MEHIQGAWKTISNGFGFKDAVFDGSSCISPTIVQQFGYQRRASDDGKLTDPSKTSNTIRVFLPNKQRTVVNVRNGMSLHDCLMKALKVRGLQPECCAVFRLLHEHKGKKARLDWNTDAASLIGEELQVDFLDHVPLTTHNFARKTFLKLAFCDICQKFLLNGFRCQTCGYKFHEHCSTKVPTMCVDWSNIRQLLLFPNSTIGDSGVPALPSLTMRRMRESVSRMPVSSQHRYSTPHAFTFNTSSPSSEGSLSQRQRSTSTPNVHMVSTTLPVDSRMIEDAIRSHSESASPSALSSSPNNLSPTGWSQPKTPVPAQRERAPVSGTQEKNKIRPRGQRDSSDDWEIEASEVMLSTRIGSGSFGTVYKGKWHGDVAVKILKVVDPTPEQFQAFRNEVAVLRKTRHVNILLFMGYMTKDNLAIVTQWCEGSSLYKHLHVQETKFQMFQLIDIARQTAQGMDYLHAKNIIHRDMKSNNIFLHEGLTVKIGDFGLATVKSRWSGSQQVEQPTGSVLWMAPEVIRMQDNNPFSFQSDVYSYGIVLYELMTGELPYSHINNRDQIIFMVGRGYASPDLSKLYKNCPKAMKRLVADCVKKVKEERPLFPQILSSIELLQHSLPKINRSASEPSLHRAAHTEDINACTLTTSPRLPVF

Chain of mutant BRAF enzyme (BRAF-V600E) (P15056 whole entry V600E): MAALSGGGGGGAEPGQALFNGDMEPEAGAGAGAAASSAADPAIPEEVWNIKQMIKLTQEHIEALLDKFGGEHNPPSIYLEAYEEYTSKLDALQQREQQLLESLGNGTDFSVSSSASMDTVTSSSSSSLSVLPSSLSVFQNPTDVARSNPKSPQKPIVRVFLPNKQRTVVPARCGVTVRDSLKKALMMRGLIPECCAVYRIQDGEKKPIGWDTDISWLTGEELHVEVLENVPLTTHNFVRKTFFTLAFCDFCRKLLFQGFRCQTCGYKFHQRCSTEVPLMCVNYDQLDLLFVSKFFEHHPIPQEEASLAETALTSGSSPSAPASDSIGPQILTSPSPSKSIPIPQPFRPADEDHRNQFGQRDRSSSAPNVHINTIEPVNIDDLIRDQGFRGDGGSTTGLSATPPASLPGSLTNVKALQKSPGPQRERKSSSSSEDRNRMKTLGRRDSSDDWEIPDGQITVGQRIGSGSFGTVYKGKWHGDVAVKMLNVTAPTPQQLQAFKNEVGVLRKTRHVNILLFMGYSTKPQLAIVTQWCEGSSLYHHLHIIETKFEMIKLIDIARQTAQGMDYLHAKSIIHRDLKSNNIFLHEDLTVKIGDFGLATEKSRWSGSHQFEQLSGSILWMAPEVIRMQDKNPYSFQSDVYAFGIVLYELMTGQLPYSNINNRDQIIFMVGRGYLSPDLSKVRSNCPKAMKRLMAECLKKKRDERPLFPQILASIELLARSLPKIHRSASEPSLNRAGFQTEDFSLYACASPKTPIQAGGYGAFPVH

| Compound | IC50 [1] [nM] | IC50 [2] [nM] |
| --- | --- | --- |
| Cc1ccc2c(Nc3ccccc3F)nccc2c1NC(=O)c1cccc2c(N)ncnc12 [Compound 39, 4-amino-N-(1-((2-fluorophenyl)amino)-6-methylisoquinolin-5-yl)quinazoline-8-carboxamide] | 1.74 ± 0.23 | 2.6 ± 0.21 |
| Cc1ccc2c(Nc3ccc(Cl)cc3F)nccc2c1NC(=O)c1cccc2c(N)ncnc12 [Compound 41, 4-amino-N-(1-((4-chloro-2-fluorophenyl)amino)-6-methylisoquinolin-5-yl)quinazoline-8-carboxamide] | 12.7 ± 2.28 | 25 ± 9.32 |
| Cc1ccc2c(Nc3cccc(C(F)(F)F)c3)nccc2c1NC(=O)c1cnc2c(N)ncnn12 [Compound 43, 4-amino-N-(6-methyl-1-((3-(trifluoromethyl)phenyl)amino)isoquinolin-5-yl)imidazo[2,1-f][1,2,4]triazine-7-carboxamide] | 4.84 ± 0.97 | 4.49 ± 0.95 |
| Cc1ccc2c(Nc3cccc(Cl)c3F)nccc2c1NC(=O)c1cc(F)cc2c(N)ncnc12 [Compound 46, 4-amino-N-(1-((3-chloro-2-fluorophenyl)amino)-6-methylisoquinolin-5-yl)-6-fluoroquinazoline-8-carboxamide] | 16.2 ± 5.93 | 38.1 ± 21.9 |
| Cc1ccc2c(Nc3ccc(F)c(Cl)c3)nccc2c1NC(=O)c1cnc2c(N)ncnn12 [Compound 58, 4-amino-N-(1-((3-chloro-4-fluorophenyl)amino)-6-methylisoquinolin-5-yl)imidazo[2,1-f][1,2,4]triazine-7-carboxamide] | 4.47 ± 0.6 | 2.68 ± 0.13 |
| COc1ccc(Nc2nccc3c(NC(=O)c4cccc5c(N)ncnc45)c(C)ccc23)c(F)c1 [Compound 60, 4-amino-N-(1-((2-fluoro-4-methoxyphenyl)amino)-6-methylisoquinolin-5-yl)quinazoline-8-carboxamide] | 6.31 ± 1.09 | 3.14 ± 0.09 |
| Cc1ccc2c(Nc3ccc(F)cc3F)nccc2c1NC(=O)c1cccc2c(N)ncnc12 [Compound 67, 4-amino-N-(1-((2,4-difluorophenyl)amino)-6-methylisoquinolin-5-yl)quinazoline-8-carboxamide] | 8.66 ± 0.95 | 5.76 ± 1.04 |
| Cc1ccc2c(Nc3cc(Cl)ccc3F)nccc2c1NC(=O)c1cccc2c(N)ncnc12 [Compound 73, 4-amino-N-(1-((5-chloro-2-fluorophenyl)amino)-6-methylisoquinolin-5-yl)quinazoline-8-carboxamide] | 11.9 ± 2.3 | 8.78 ± 1.48 |
| Cc1ccc2c(Nc3ccc(F)cc3F)nccc2c1NC(=O)c1cc(F)cc2c(N)ncnc12 [Compound 85, 4-amino-N-(1-((2,4-difluorophenyl)amino)-6-methylisoquinolin-5-yl)-6-fluoroquinazoline-8-carboxamide] | 9.02 ± 0.86 | 4.43 ± 0.32 |
| Cc1ccc2c(Nc3cc(S(C)(=O)=O)ccc3F)nccc2c1NC(=O)c1cccc2c(N)ncnc12 [Compound 89, 4-amino-N-(1-((2-fluoro-5-(methylsulfonyl)phenyl)amino)-6-methylisoquinolin-5-yl)quinazoline-8-carboxamide] | 7.58 ± 0.51 | 4.26 ± 0.16 |
| Cc1ccc2c(Nc3cc(F)c(F)cc3F)nccc2c1NC(=O)c1cccc2c(N)ncnc12 [Compound 90, 4-amino-N-(6-methyl-1-((2,4,5-trifluorophenyl)amino)isoquinolin-5-yl)quinazoline-8-carboxamide] | 18.6 ± 2.25 | 14.2 ± 6.59 |
| Nc1ncnc2c(C(=O)Nc3c(F)ccc4c(Nc5cccc(Cl)c5F)nccc34)cccc12 [Compound 92, 4-amino-N-(1-((3-chloro-2-fluorophenyl)amino)-6-fluoroisoquinolin-5-yl)quinazoline-8-carboxamide] | 5.34 ± 0.75 | 10.8 ± 4.78 |
| Cc1ccc2c(Nc3cccc(Cl)c3F)nccc2c1NC(=O)c1ccc(F)c2c(N)ncnc12 [Compound 93, 4-amino-N-(1-((3-chloro-2-fluorophenyl)amino)-6-methylisoquinolin-5-yl)-5-fluoroquinazoline-8-carboxamide] | 5.03 ± 0.54 | 5.73 ± 0.36 |
| Cc1ccc2c(Nc3c(F)cc(F)cc3F)nccc2c1NC(=O)c1cccc2c(N)ncnc12 [Compound 94, 4-amino-N-(6-methyl-1-((2,4,6-trifluorophenyl)amino)isoquinolin-5-yl)quinazoline-8-carboxamide] | 3.46 ± 0.22 | 4.24 ± 0.17 |
